Assays:
Type in all cases: cell-based
IL-4 production = IL-4 production inhibiting test in OVA-stimulated spleen cells of immunised mouse (ELISA); conditions: 72 h, spleen cells of OVA-immunised BALB/c-mouse, OVA 0.5 mg/ml, 3 days
Description: (§1) Example 146: IL-4 and IL-5 production inhibiting test
(§2) A 6-weeks-old BALB/c-mouse (Nippon Charles River) was bred preparatively for 1 week and given at the day 0 and day 14 intraperitoneal injection of 100 µl PBS to give immunity which PBS contained 0.1 mg/ml of Ovalbumin(OVA) and 40 mg/ml of aluminum hydroxide. At the day 21 the spleen was taken out from the mouse. The spleen was dissected with a pincette in cooled PBS, passed through a mesh and subjected to centrifugation at 4 °C at 1,500 rpm for 5 minutes. The cells was added with 5 ml of 0.2% NaCI to destroy erythrocytes, and then was made isotonic by adding 5 ml of 1.6% of NaCl. After centrifugation at 4 °C, 1,500 rpm for 5 minutes, the cells were washed twice with 10 ml ofRPMI1640 culture medium. The obtained spleen cells were suspended in cRPMI1640 medium, and the number of the cells was measured by Tuerk dying. After being adjusted to 1 × 10^7 cells/ml, the cells were planted in 100 µl/well on a 96-well plate (FALCON). The cells were cultured at 37 °C under 5% CO2 atmosphere for about 4 hours. OVA was prepared to 10 mg/ml with cRPMI1640 culture medium and subjected to sterile filtration. The 10 mg/ml OVA was diluted with cRPMI1640 culture medium to give 1 mg/ml OVA. A compound to be tested which was dissolved in DMSO in at 1,000-fold concentration was diluted up to 500-fold with cRPMI1640 culture medium containing 1 mg/ml OVA and added in 100 µl/well to the cells which had been planted on the previously mentioned 96-well plate (final concentration of OVA: 0.5 mg/ml). As the controls, the solutions were made by diluting DMSO of the same volume as with the test compounds with cRPMI1640 culture medium containing 1 mg/ml OVA, and they were added to the cells. These cells were cultured at 37 °C under 5%CO2 atmosphere for 3 days. IL-4 and IL-5 in the culture supernatants after 3 days were quantitatively determined by ELISA method. IL-4 and IL-5 were quantitatively determined using IL-4 Development Kit (Genzyme Techne) and mouse IL-5 MiniKit (ENDOGEN), respectively. The production inhibiting rates of each tested compound against IL-4 are shown in Table 22, those against IL-5 in Table 23.

IL-5 production = IL-5 production inhibiting test in OVA-stimulated spleen cells of immunised mouse (ELISA); conditions: 72 h, spleen cells of OVA-immunised BALB/c-mouse, OVA 0.5 mg/ml, 3 days
Description: as §1, §2

TNF-α production = TNF-α production inhibiting test using human PBMC (LPS stimulus, ELISA); conditions: LPS 10 ng/ml, 16 hours, ELISA of culture supernatants
Description: Example 145: TNF-α production inhibiting test using human PBMC (peripheral blood mononuclear cells)
Preparation of human PBMC
The blood of a healthy person was taken with a vacuum blood-collecting tube (Nipro neotube) and diluted up to two-fold with physiological saline (Otsuka Pharmaceuticals). To the diluted blood was added 6% dextran T-500 (prepared after dissolution in physiological saline (Otsuka Pharmaceuticals) and sterilization with an autoclave) so as to make a final concentration of 1%. The solution was subjected to tumble mixing and allowed to stand at room temperature for 30 minutes to precipitate the erythrocytes. The supernatant was collected and subjected to centrifugation at 20 °C and at 1,500 rpm for 10 minutes. The cells were suspended in 3 ml of RPMI1640 culture medium (Asahi Technogllas) and overlaid on the solution surface of 3 ml Lymphoprep (NYCOMED). Further, with 1.5 ml of RPMI1640 culture medium being added to the tube which had contained the cell suspension liquid, the cells attached to the tube, which had remained uncollected, were suspended for collection and overlaid on the Lymphoprep previously mentioned. This operation was repeated again. After centrifugation at 20 °C and at 2,000 rpm for 30 minutes, there was collected a fraction of peripheral blood mononuclear cells present in the boundary surface between the Lymphoprep and the RPMI1640 culture medium. The cells were washed twice with 10 ml RPMI1640 culture medium to remove the Lymphoprep and then suspended in a RPMI1640 culture medium added with 10% bovine fetal serum (IRVINE SCIENTIFIC), 100 U/ml penicillin and 100 µg/ml streptomycin (hereinafter referred to as cRPMI1640 culture medium). The number of the cells was measured by Tuerk dying, and the cells, after adjustment to 3 × 10^6 cells/ml, were planted in 100 µl/well on a 96-well plate (FALCON). The cells were cultured at 37 °C under 5%CO2 atmosphere for about 5 hours.
Induction of TNF-α production by LPS stimulus
LPS (E.coli 0111:B4, DIFCO), which had been prepared to 10 mg/ml with water and kept at -20, was diluted to 100 µg/ml with cRPMI1640 culture medium and subjected to sterile filtration. The 100 µg/ml LPS was diluted with cRPMI1640 culture medium to prepare 20 ng/ml LPS. A compound to be tested which was dissolved in DMSO at 1,000-fold concentration was diluted to 500-fold with cRPMI1640 culture medium containing 20 ng/ml LPS and added in 100 µl/well to the cells which had been planted on the previously mentioned 96-well plate (final concentration of LPS: 10 ng/ml). For use as the control group, the solutions were made by diluting DMSO of the same volume as in the test compounds with cRPMI1640 culture medium containing 20 ng/ml LPS, and they were added to the cells. These cells were cultured at 37 °C under 5%CO2 atmosphere for 16 hours.
Determination of TNF-α activity (ELISA method)
To the 96-well plate the mouse anti-human TNF-α antibody (prepared to 2 µg/ml with Coating buffer*^1) was added so as to make 100 µl/well and allowed to stand at 4 °C overnight. After 5-times washing with Wash buffer*^2 (300µl/well), the Blocking buffer*^3 was added to the solutions, which were allowed to stand 37 °C for 2 hours. The culture supernatants were diluted up to 5-fold in the plate (supernatant 20 µl being added to 80 µl of cRPMI1640 culture medium). Simultaneously, for using for a calibration curve, a series of dilution of recombinant human TNF-α was prepared arid allowed to stand 37 °C for 1 hour. After 5-times washing with Wash buffer (300 µl /well), biotinylated rabbit anti-human TNF-α antibody (prepared to 0.25 µg/ml with Antibody diluent*^4) was added so as to make 100 µl /well and allowed to stand at 37 °C for 1 hour. After 5-times washing with Wash buffer (300 µl /well), Streptavidin-Horseradish peroxidase(prepared to 1:4000 with Antibody diluent) was added to make 100 µl /well and allowed to stand at 37 °C for 15 minutes. […]

For `O=[N+]([O-])c1cc2c(NCc3ccccc3F)ncnc2cc1N1CCNCC1` [Example 61, 4-(2-fluorobenzylamino)-6-nitro-7-(piperazin-1-yl)quinazoline], the IC50 (IL-4 production) was 200 nM, the IC50 (IL-5 production) was 2000 nM and the IC50 (TNF-α production) was 300 nM.

In the case of `O=[N+]([O-])c1cc2c(NCc3ccc4c(c3)OCO4)ncnc2cc1N1CCNCC1` [Example 31, 4-[3,4-(methylenedioxy)benzylamino]-6-nitro-7-(piperazin-1-yl)quinazoline], the IC50 (IL-4 production) is reported as 10 nM, the IC50 (IL-5 production) is reported as 200 nM and the IC50 (TNF-α production) is reported as 80 nM.

`CC(C)(C)c1cc(CNc2ncnc3cc(N4CCNCC4)c([N+](=O)[O-])cc23)cc(C(C)(C)C)c1O` [Example 131, 4-[(3,5-di-tert-butyl-4-hydroxy)benzylamino]-6-nitro-7-(piperazin-1-yl)quinazoline] gave an IC50 (IL-4 production) of 200 nM, an IC50 (IL-5 production) of 1400 nM and an IC50 (TNF-α production) of 300 nM.

Reference: EP1229025A1, “NOVEL QUINAZOLINE DERIVATIVES” (Japan Energy Corporation, priority 1999, dated 2001)
